Reference: patent publication US20080255366A1, “Crystalline Trihydrate of Zoledronic Acid” (DR. REDDY'S LABORATORIES LIMITED, priority 2005, published 2008)

Experiment: solubility of crystalline zoledronic acid trihydrate compared with the monohydrate
Type: physicochemical
Conditions: relative to zoledronic acid monohydrate; solvent and temperature not stated

Question: For `O=P(O)(O)C(O)(Cn1ccnc1)P(=O)(O)O` [zoledronic acid trihydrate, (1-Hydroxy-2-imidazol-1-yl-phosphonoethyl) phosphonic acid], which solubility is on record?
Answer: substantially equal to that of the monohydrate
